In brackets after ≈: the same amount, converted by molar mass.
How the values were obtained:
[1] = target: T1, P2X purinoceptor 7 (Homo sapiens, UniProt Q99572); test: Antagonist activity at recombinant human P2X7 receptor expressed in human 1321N1 cells assessed as inhibition of Bz-ATP-induced Ca2+ flux preincubated for 30 mins followed by agonist addition measured after 180 sec by calcium-4 dye based FLIPR assay; assay type: cell-based
T1 sequence (Q99572 whole entry): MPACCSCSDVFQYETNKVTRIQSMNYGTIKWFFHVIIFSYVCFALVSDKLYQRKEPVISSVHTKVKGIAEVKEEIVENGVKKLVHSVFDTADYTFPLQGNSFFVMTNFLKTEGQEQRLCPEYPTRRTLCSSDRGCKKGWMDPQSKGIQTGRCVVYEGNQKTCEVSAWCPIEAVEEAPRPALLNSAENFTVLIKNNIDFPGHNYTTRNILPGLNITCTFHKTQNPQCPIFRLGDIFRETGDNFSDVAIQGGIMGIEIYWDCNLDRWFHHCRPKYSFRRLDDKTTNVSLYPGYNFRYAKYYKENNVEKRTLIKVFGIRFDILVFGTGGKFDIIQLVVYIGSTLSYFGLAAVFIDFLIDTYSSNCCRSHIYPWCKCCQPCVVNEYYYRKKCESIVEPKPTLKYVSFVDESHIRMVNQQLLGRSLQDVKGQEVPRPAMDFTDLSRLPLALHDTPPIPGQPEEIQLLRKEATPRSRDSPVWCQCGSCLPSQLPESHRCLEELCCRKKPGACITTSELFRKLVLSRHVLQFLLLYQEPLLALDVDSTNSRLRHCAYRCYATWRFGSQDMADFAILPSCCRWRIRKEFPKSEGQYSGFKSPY

[2] = target: Cytochrome P450 2C9 (Homo sapiens, UniProt P11712); test: Inhibition of CYP2C9 in human liver microsomes using diclofenac as substrate after 15 mins by LC/MS/MS analysis; assay type: ADME
[3] = target: Voltage-gated inwardly rectifying potassium channel KCNH2 (Homo sapiens, UniProt Q12809); test: Displacement of [3H]astemizole from human ERG expressed in HEK293 cells by competitive binding assay; assay type: cell-based
[4] = target: T2, Cytochrome P450 2C8 (Homo sapiens, UniProt P10632); test: Inhibition of CYP2C8 in human liver microsomes using paclitaxel as substrate after 15 mins by LC/MS/MS analysis; assay type: ADME
T2 sequence (P10632 whole entry): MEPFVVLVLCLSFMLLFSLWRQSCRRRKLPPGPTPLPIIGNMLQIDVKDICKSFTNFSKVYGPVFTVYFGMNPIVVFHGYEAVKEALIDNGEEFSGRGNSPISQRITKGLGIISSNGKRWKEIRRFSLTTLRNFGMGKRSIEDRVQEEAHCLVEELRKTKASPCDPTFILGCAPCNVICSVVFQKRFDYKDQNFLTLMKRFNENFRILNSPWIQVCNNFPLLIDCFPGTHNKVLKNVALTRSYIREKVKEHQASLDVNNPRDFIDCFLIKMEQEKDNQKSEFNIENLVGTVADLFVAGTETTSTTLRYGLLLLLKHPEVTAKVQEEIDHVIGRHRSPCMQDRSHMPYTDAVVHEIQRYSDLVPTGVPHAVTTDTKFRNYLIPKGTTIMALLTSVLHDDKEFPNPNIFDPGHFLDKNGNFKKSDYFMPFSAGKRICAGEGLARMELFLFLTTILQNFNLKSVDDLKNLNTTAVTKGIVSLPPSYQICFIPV

[5] = target: T3, Cytochrome P450 1A2 (Homo sapiens, UniProt P05177); test: Inhibition of CYP1A2 in human liver microsomes using phenacetin as substrate after 15 mins by LC/MS/MS analysis; assay type: ADME
T3 sequence (P05177 whole entry): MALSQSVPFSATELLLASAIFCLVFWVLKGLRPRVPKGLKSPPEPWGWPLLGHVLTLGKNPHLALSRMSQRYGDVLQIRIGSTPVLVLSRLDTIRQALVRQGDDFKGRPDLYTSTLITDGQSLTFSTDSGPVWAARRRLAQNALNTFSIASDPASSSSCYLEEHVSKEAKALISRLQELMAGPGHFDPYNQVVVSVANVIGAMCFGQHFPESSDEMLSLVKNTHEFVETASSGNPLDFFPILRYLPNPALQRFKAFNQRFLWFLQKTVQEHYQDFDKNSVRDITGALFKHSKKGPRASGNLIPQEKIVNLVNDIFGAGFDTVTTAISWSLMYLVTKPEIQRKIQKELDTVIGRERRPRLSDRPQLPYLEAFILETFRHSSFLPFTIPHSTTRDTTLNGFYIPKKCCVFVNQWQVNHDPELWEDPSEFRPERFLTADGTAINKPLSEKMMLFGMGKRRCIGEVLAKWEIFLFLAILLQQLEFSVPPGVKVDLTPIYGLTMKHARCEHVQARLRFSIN

[6] = target: Cytochrome P450 2C19 (Homo sapiens, UniProt P33261); test: Inhibition of CYP2C19 in human liver microsomes using S-mephenytoin as substrate after 15 mins by LC/MS/MS analysis; assay type: ADME
[7] = Solubility of compound in phosphate buffer at pH 2 at room temperature after 3 days
[8] = Solubility of the compound in phosphate buffer at pH 7 at room temperature after 3 days
[9] = Protein binding in human plasma at 1 uM after 6 hrs by LC/MS/MS based equilibrium dialysis method; assay type: ADME, cell-free; settings: read-out: PPB (converted)
[10] = Protein binding in rat plasma at 1 uM after 6 hrs by LC/MS/MS based equilibrium dialysis method; assay type: ADME, cell-free; settings: read-out: PPB (converted)
[11] = target: T4, P2X purinoceptor 7 (Mus musculus, UniProt Q9Z1M0); test: Antagonist activity at recombinant mouse P2X7 receptor expressed in human 1321N1 cells assessed as inhibition of Bz-ATP-induced Ca2+ flux preincubated for 30 mins followed by agonist addition measured after 180 sec by calcium-4 dye based FLIPR assay; assay type: cell-based
T4 sequence (Q9Z1M0 whole entry): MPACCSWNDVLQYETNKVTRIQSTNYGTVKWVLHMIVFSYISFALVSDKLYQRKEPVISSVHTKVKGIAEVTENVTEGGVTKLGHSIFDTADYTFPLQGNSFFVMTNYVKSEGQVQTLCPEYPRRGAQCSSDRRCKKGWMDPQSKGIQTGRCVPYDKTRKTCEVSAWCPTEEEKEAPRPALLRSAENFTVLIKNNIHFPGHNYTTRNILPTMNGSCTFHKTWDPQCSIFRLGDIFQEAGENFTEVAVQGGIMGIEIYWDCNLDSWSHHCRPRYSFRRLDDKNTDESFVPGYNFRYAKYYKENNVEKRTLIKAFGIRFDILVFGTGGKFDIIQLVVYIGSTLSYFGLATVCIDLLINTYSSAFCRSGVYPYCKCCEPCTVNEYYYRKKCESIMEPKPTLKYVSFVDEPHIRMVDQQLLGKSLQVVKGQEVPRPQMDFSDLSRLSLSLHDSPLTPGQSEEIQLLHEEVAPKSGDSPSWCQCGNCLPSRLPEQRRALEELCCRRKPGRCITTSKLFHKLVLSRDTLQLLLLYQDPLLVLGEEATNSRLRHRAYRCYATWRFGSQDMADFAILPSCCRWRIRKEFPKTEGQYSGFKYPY

[12] = target: Cytochrome P450 2D6 (Homo sapiens, UniProt P10635); test: Inhibition of CYP2D6 in human liver microsomes using dextromethorphan as substrate after 15 mins by LC/MS/MS analysis; assay type: ADME
[13] = target: T5, CYP3A4 (Homo sapiens, UniProt P08684); test: Inhibition of CYP3A4 in human liver microsomes using midazolam as substrate assessed as reduction in 1-OH-midazolam formation at 0.01 uM by LC/MS/MS analysis; settings: probe midazolam
[14] = target: T5, CYP3A4; test: Inhibition of CYP3A4 in human liver microsomes using midazolam as substrate assessed as reduction in 1-OH-midazolam formation at 0.02 uM by LC/MS/MS analysis; settings: probe midazolam
[15] = target: T5, CYP3A4; test: Inhibition of CYP3A4 in human liver microsomes using midazolam as substrate assessed as reduction in 4-OH-midazolam formation at 0.02 uM by LC/MS/MS analysis; settings: probe midazolam
[16] = target: T5, CYP3A4; test: Inhibition of CYP3A4 in human liver microsomes using midazolam as substrate assessed as reduction in 4-OH-midazolam formation at 0.01 uM by LC/MS/MS analysis; settings: probe midazolam
[17] = in vitro; settings: rat, liver microsomes
Description: Extraction ratio in rat liver microsomes at 1 uM upto 60 mins in presence of NDPH by LC/MS/MS analysis

[18] = in vitro; settings: human, liver microsomes
Description: Extraction ratio in human liver microsomes at 1 uM upto 60 mins in presence of NDPH by LC/MS/MS analysis

[19] = target: T6, P2X purinoceptor 7 (Rattus norvegicus, UniProt Q64663); test: Antagonist activity at recombinant rat P2X7 receptor expressed in human 1321N1 cells assessed as inhibition of Bz-ATP-induced Ca2+ flux preincubated for 30 mins followed by agonist addition measured after 180 sec by calcium-4 dye based FLIPR assay; assay type: cell-based
T6 sequence (Q64663 whole entry): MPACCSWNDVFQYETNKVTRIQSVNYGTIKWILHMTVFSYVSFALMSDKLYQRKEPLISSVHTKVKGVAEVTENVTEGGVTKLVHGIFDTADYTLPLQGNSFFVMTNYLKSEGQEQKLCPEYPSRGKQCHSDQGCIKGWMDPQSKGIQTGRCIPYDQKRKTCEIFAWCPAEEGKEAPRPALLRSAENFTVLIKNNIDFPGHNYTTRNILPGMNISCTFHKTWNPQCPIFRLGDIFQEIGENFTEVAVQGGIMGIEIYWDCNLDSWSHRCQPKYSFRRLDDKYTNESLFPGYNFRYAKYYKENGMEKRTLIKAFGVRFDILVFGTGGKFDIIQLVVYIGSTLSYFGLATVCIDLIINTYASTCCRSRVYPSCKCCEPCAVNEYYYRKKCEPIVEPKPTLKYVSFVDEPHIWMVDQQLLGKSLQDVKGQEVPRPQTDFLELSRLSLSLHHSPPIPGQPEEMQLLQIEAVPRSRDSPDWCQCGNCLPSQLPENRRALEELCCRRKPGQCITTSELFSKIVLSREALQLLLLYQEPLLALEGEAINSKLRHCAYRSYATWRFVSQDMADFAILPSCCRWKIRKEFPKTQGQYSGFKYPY

T5 sequence (P08684 whole entry): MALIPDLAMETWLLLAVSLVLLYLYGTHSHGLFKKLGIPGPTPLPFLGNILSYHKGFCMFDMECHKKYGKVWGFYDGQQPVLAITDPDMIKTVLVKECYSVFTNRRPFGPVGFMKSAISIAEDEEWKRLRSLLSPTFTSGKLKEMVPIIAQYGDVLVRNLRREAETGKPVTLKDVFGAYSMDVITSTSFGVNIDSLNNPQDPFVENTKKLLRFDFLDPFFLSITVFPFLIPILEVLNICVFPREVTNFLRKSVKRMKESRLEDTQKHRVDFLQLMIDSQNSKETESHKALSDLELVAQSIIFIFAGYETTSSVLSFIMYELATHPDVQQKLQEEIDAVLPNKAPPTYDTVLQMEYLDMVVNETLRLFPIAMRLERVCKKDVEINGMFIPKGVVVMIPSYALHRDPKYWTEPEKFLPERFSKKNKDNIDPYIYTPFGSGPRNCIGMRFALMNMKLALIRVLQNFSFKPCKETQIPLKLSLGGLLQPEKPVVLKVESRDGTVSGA
Voltage-gated inwardly rectifying potassium channel KCNH2, sequence (Q12809 whole entry): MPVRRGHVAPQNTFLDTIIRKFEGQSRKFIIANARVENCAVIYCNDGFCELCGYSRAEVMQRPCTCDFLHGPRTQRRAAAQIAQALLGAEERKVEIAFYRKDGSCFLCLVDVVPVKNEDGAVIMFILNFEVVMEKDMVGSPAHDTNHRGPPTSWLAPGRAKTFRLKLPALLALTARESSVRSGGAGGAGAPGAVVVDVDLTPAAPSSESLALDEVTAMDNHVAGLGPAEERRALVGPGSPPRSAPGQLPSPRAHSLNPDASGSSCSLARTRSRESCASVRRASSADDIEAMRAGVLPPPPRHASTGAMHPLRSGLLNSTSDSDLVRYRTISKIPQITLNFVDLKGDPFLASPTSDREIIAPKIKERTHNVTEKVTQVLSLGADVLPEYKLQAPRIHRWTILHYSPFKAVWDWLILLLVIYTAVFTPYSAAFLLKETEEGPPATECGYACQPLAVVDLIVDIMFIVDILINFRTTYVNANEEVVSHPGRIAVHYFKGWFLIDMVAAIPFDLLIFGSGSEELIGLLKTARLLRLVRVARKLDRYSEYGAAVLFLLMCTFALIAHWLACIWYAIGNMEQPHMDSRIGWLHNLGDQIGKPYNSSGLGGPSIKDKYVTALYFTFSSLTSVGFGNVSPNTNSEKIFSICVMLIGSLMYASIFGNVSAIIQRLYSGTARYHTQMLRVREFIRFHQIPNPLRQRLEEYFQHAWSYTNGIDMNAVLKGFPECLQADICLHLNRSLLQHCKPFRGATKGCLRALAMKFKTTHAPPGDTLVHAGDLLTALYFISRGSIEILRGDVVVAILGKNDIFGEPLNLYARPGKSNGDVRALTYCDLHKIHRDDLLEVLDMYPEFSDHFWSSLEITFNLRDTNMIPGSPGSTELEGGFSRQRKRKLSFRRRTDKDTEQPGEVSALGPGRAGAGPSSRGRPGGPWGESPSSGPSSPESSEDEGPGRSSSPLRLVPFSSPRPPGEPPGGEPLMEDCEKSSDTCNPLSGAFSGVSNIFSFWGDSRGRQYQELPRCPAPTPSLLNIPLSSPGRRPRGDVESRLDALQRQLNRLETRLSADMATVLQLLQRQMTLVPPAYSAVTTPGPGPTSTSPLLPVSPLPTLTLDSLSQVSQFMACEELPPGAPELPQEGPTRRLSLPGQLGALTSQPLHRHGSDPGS
Cytochrome P450 2C19, sequence (P33261 whole entry): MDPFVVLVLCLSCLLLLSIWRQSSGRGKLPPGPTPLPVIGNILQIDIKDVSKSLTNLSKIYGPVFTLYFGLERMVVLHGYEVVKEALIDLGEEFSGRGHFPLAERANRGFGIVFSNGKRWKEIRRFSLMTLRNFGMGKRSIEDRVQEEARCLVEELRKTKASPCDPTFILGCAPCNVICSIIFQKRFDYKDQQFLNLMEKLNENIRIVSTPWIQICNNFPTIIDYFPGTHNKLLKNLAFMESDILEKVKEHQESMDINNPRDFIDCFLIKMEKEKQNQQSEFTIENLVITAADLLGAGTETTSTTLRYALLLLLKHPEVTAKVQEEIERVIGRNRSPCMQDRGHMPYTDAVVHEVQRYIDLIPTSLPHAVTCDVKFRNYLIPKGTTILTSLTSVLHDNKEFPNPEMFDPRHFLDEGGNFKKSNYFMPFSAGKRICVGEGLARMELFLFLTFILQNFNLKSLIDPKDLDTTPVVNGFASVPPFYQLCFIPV
Cytochrome P450 2D6, sequence (P10635 whole entry): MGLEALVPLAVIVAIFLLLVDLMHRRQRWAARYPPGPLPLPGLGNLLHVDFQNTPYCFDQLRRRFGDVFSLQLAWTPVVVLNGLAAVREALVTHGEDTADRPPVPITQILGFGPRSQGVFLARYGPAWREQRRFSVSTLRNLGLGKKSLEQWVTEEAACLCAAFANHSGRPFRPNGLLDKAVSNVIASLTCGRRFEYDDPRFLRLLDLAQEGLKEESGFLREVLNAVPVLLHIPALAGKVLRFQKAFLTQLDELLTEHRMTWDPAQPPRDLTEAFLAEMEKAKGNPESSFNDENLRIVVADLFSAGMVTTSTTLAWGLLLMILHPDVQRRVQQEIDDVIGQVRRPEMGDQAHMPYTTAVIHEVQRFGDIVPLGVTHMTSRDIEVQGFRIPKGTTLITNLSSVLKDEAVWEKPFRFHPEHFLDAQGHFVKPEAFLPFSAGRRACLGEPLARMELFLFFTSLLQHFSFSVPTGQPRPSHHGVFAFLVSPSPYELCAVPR
Cytochrome P450 2C9, sequence (P11712 whole entry): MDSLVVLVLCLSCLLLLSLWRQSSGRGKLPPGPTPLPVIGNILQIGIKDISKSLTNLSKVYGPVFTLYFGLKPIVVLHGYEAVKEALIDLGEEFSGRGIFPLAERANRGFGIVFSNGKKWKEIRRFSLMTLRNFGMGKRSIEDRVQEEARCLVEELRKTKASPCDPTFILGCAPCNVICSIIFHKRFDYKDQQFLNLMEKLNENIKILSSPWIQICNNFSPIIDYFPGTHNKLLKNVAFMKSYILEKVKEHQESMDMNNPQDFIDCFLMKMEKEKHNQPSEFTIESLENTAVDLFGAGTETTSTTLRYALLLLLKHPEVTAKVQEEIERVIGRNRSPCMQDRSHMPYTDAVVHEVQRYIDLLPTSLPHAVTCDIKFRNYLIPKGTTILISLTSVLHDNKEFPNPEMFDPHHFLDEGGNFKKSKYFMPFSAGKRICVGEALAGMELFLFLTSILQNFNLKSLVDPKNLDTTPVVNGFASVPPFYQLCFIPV

IC50 [1] [nM] | solubility at 72 h [7] [µM] | solubility at 72 h [8] [µM] | fraction unbound at 6 h, 1 µM [9] | fraction unbound at 6 h, 1 µM [10] | IC50 [11] [nM] | Structure (SMILES) | further results
 | > 400 | 20 (≈ 8.42 µg/mL) | 0.047 | 0.026 | 20 | C[C@@H]1c2ncn(-c3ccccn3)c2CCN1C(=O)c1cccc(C(F)(F)F)c1Cl | IC50 [2]: > 10000 nM; IC50 [3]: > 10000 nM; IC50 [4]: > 10000 nM; IC50 [5]: > 10000 nM; IC50 [6]: > 10000 nM; IC50 [12]: > 10000 nM
77 |  |  |  |  |  | CC1c2ncn(-c3cnccn3)c2CCN1C(=O)c1cccc(C(F)(F)F)c1Cl (configuration not stated) | hepatic extraction ratio at 1 h, 1 µM [17]: 0.84; hepatic extraction ratio at 1 h, 1 µM [18]: 0.77; IC50 [19]: 1230 nM
 | 165 (≈ 72.2 µg/mL) | 14 (≈ 6.13 µg/mL) | 0.04 | 0.025 | 45 | C[C@@H]1c2ncn(-c3ccc(F)cc3)c2CCN1C(=O)c1cccc(C(F)(F)F)c1Cl | 
9 |  |  |  |  |  | CC1c2ncn(-c3ncccc3F)c2CCN1C(=O)c1cccc(C(F)(F)F)c1Cl (configuration not stated) | 
 | > 400 | 4 (≈ 1.76 µg/mL) | 0.048 | 0.038 | 38 | C[C@@H]1c2ncn(-c3ncc(F)cn3)c2CCN1C(=O)c1cccc(C(F)(F)F)c1Cl | IC50 [3]: > 10000 nM; IC50 [6]: 7800 nM

Second part, the compound before the results:

Structure (SMILES) | IC50 [1] [nM] | solubility at 72 h [7] [µM] | solubility at 72 h [8] [µM] | fraction unbound at 6 h, 1 µM [9] | fraction unbound at 6 h, 1 µM [10] | IC50 [11] [nM] | further results
O=C(c1cccc(C(F)(F)F)c1Cl)N1CCc2c(ncn2-c2cnccn2)C1 | 9 |  |  |  |  |  | 
CC(=O)N1CCN(c2ccc(OCC3COC(Cn4ccnc4)(c4ccc(Cl)cc4Cl)O3)cc2)CC1 (configuration not stated) [KETOCONAZOLE] |  |  |  |  |  |  | inhibition at 0.01 µM [13]: 53%; inhibition at 0.02 µM [14]: 70%; inhibition at 0.02 µM [15]: 74%; inhibition at 0.01 µM [16]: 57%
O=C(c1cccc(C(F)(F)F)c1Cl)N1CCc2c(ncn2-c2ccccc2)C1 |  |  |  |  |  |  | hepatic extraction ratio at 1 h, 1 µM [17]: 0.89; hepatic extraction ratio at 1 h, 1 µM [18]: 0.94
O=C(c1cccc(C(F)(F)F)c1Cl)N1CCc2c(ncn2-c2ccccn2)C1 | 4 |  |  |  |  |  | 
O=C(c1cccc(C(F)(F)F)c1F)N1CCc2c(ncn2-c2ccc(F)cn2)C1 |  |  |  |  |  |  | IC50 [19]: > 10000 nM

Reference: ChEMBL document CHEMBL3856233, “Identification of (R)-(2-Chloro-3-(trifluoromethyl)phenyl)(1-(5-fluoropyridin-2-yl)-4-methyl-6,7-dihydro-1H-imidazo[4,5-c]pyridin-5(4H)-yl)methanone (JNJ 54166060), a Small Molecule Antagonist of the P2X7 receptor” (J Med Chem, 2016)
